The text below walks through data of a melting point compilation (Tetko et al.; mined from patent text by program, amines drawn as free bases though some values may be those of a salt).

Take `COc1ccc2c(c1)C(C)CCC2=O` (stereo unspecified): the melting point lay in the range of 57.5 to 58.5 °C.
For `O=C(O)CN1CCC[C@H](OCc2cc(C(F)(F)F)cc(C(F)(F)F)c2)[C@@H]1c1ccccc1` the value was 60 to 63 °C.
With `O=[N+]([O-])c1nccn1COCCO` the figure was 115 °C; with `CC(C)(O)c1cnn2c(-c3cccc(-c4ccncc4)c3F)cnc2n1`, 221 to 223 °C.
`Cc1cncn1-c1cccc([N+](=O)[O-])c1` gave a melting point of 130 to 132 °C.
`c1cnc(Sc2cccc3cccnc23)nc1`: the melting point was in the range of 165 to 168 °C.
With `CC(C)c1ccc(C=CC(=O)c2ccc(O)c(CC(=O)O)c2)cc1` the figure was 228 °C; with `CCOC(=O)N1CC[C@H](O)[C@@H]1C(c1ccccc1)c1ccccc1` (relative stereo), 104 to 105 °C.
For `CCOC(=O)C(=O)CC(=O)C(Br)C(Br)c1ccccc1OC` (stereo unspecified) the value was 113 to 115 °C.
With `NC1CCCN(c2ncc3ncnc(Nc4ccc(F)c(Cl)c4)c3n2)CC1` (stereo unspecified) the figure was 122 to 124 °C; with `Cc1ccc(S(=O)(=O)OCc2cc([N+](=O)[O-])ccc2F)cc1`, 89 to 91 °C; with `COC1(c2cccc(S(=O)(=O)c3ccc4c(c3)C(C)(C)S(=O)(=O)C4(C)C)c2)CCOCC1`, 115 °C.
With `Cn1cc(-c2cccc(Cl)c2)c(=O)c(-c2ccc(Cl)c(Cl)c2)c1`, the melting point lay within 107 to 110 °C.
For `CCCc1nn(CC)c2c(=O)[nH]c(-c3cc(S(=O)(=O)Cl)ccc3OCC)nc12` the value was 170 to 172 °C.
On to `O=C(Nc1ccc(Cl)c(C(F)(F)F)c1)c1ccccc1NCc1ccc(=O)[nH]c1`, for which the melting point is 231 °C.
With `O=C(O)c1cn(CCF)c2cc(F)c(F)cc2c1=O` the figure was 249 to 251 °C.
`Cc1oc(-c2ccccc2)nc1COc1cccc([N+](=O)[O-])c1`: the melting point was in the range of 106 to 107 °C.
Take `CCOC(=O)/C=C/C=C(c1ccc(Cl)cc1)c1ccc(Cl)cc1`: the melting point fell in the range of 98 to 100 °C.
For `Nc1nc2ccc(CCN3CCC(C(=O)c4ccccc4)CC3)cc2s1` the value was 186 to 188 °C; for `COc1ccc(O)c(C=O)c1OC`, 53 to 54 °C.
For `CC(=O)OCCSc1nc(C(C)(C)C)n[nH]1` the value was 114 to 115 °C; for `CC(=Cc1ccc(OCCCNc2ccc(Cl)cc2)cc1)C(=O)O`, 188 to 193 °C.
Turning to `COc1ccccc1OCC1SCCN1C(=S)CC(C)=O` (stereo unspecified), the melting point fell in the range of 89 to 91 °C.
For `COc1ccccc1C(=O)Nc1nc(-c2ccccc2)c(-c2ccc(=O)n(C(C)C)n2)s1` the value was > 250 °C; for `CCOC(=O)c1cc2cc(F)cnc2n1Cc1ccccc1`, 74 to 75 °C; for `Oc1ccccc1-n1cccc1`, 52 to 54 °C.
`CC(CN(C)C)C(CNC(N)=O)(c1ccccc1)c1ccccc1` (stereo unspecified) showed a melting point of 226 to 228 °C.
With `O=C1CCn2c1c(Sc1ccccc1)c1ccccc12` the figure was 179 to 181 °C.
For the compound `COc1cc(C=C(C#N)C(=O)Nc2cccc(Cl)c2)cc(Br)c1O`, the melting point fell in the range of 217 to 219 °C.
With `N#Cc1cc(C(=O)NNC(=O)c2occc2-c2ccccc2)ccc1O` the figure was 216 to 217 °C; with `CC(C)c1cccc(C(C)C)c1NC(=O)CC1c2ccccc2Oc2ccccc21`, 231 to 232 °C.
In the case of `O=[N+]([O-])c1sc(-n2cccc2)nc1Cl`, the melting point was 138 to 139 °C.
With `Cc1cccc(N)c1[N+](=O)[O-]` the figure was 105 to 108 °C; with `CCC(=O)C(CCCCCCCOc1ccc(OCc2ccccc2)cc1)C(=O)CC`, 54 to 55 °C; with `COC(=O)CCCNC(=O)C[C@H]1O[C@H](c2cccc(OC)c2OC)c2cc(Cl)ccc2N(CC(C)(C)CO)C1=O`, 78 to 80 °C.
As to `CCCCCCCCSCC(=O)[C@H](Cc1ccccc1)NC(=O)[C@H](CC(C)C)NC(=O)OCc1ccccc1`, the melting point was determined as 69 °C.
For `NC(=O)C1(CCCN2CCCCC2)CC=CCC1c1ccccc1` (stereo unspecified) the value was 121 to 122 °C.
With `COc1ccc(COc2nn(Cc3ccccc3)cc2C=O)cc1OCc1nc(-c2ccco2)oc1C` the figure was 142 to 143 °C.
For `C=CCc1c(O)c2cccnc2n(-c2ccccc2)c1=O` the value was 248 to 250 °C.
On to `CC=Cc1nc2cc3c(cc2[nH]1)NC(=O)C3(C)C`, for which the melting point was in the range of 252 to 254 °C.
With `CCOCc1nc2c(N)nc3cc(N4CCN(CC)C4=O)ccc3c2n1CC(C)(C)O` the figure was 210 to 212 °C.
With `CCOCc1nc2c(N)nc3cccnc3c2n1CCCON=C1CCN(C(C)=O)CC1` the figure was 162 to 163 °C; with `Cn1c(=O)ccc2cc(-c3cccnc3)ccc21`, 116 to 118 °C; with `COc1cnc(-c2cccn3nc(Nc4ccc(C5CCN(CC(=O)N(C)C)CC5)cc4)nc23)cn1`, 185 to 187 °C.
For `COCCc1cnc(Cl)nc1` the value was 25 to 26 °C.
In turn, `CCCc1nc2c(C)cnc(C(=O)OC)c2n1Cc1ccc(-c2ccccc2-c2nnnn2C(c2ccccc2)(c2ccccc2)c2ccccc2)cc1` registered a melting point of 239 to 242 °C.
With `CC(C)(C)OC(=O)n1cnc2c(I)cc(F)cc21` the figure was 73 to 74 °C; with `CC(C)(C)C(=O)c1ccc(COc2ccccc2)cc1`, 79.5 to 80 °C.
For `CCN(CC)Cc1ccc2nc(-c3ccccc3)cc(OCc3ccccc3)c2c1` the value was 108 to 109 °C.
With `CCOC(=O)/C=C/c1cn(-c2ccc(C(F)(F)F)cc2)nc1C(C)C` the figure was 118 to 119 °C; with `CCCCCCCCn1sc(Cl)c(Cl)c1=O`, 44 to 47 °C; with `COc1c(SC)ccc(C(=O)C(C#N)C(=O)C2CC2)c1Br` (stereo unspecified), 128 to 129 °C.
Compound `O=Cc1cn(-c2ccccn2)nc1-c1ccc([N+](=O)[O-])o1` returned a melting point of 191 to 192 °C.
With `O=C1CCCN2N=C(c3ccc(Br)cc3)SC2=N1` the figure was 204 to 207 °C; with `OCc1cc(Cl)c(O)cc1F`, 125 to 127 °C.
Turning to `OCc1cc(NCCCCCCBr)ccc1O`, the melting point lay in the range of 132 to 134 °C.
For `Cc1ccc(C(C)(C)Cl)cc1C` the value was -20 to -19 °C; for `Clc1ccc(-c2ccnc(Nc3nc4ccccc4[nH]3)n2)cn1`, 308 to 311 °C.
With `CC(Nc1ccc2c(n1)CC1CCCCC1C2=O)c1ccccc1` (stereo unspecified) the figure was 156 to 158 °C; with `CC(C)(C1=NOS(=O)N1)c1ccc2ccccc2c1` (stereo unspecified), 146 to 147 °C.
For `CC(C)(C)c1cc(SCSc2cc(C(C)(C)C)c(O)c(C(C)(C)C)c2)cc(C(C)(C)C)c1O` the value was 94 to 95 °C.
Take `Cc1c[nH]c(=O)c2c3c([nH]c12)CCC(=O)C3`: the melting point is > 260 °C.
With `COc1ccc2c(c1)C(=O)C(C(=O)O)C(c1ccccc1)=N2` (stereo unspecified) the figure was > 300 °C.
On to `CCCCC(CC(=O)Nc1cc(C(N)=O)ccc1C(C)(C)C)c1ccc(OC)cc1OCC` (stereo unspecified), for which the melting point fell in the range of 184 to 186 °C.
The compound `Cc1ccc(OC2CCN(C(=O)C(=O)Nc3ccc4c(c3)CC(=O)N4)CC2)cc1` returned a melting point of 109 to 112 °C.
`Cn1cc(-c2ccccc2)c(=O)c(-c2cccc(I)c2)c1`: the melting point fell in the range of 190 to 193 °C.

For orientation: melting point means the temperature, or range, at which the solid turns liquid.
